From ChEMBL document CHEMBL5346961, “Discovery and Evaluation of 3-Quinoxalin Urea Derivatives as Potent, Selective, and Orally Available ATM Inhibitors Combined with Chemotherapy for the Treatment of Cancer via Goal-Oriented Molecule Generation and Virtual Screening” (J Med Chem, 2023)
Active and inactive are the calls of the source. No cut-off for these calls is given here.

Tests used:
HCT-116 [1] = experiment: Inhibition of colony formation in human HCT-116 cells at 0.01 uM preincubated for 1 hr followed by exposure to 2 Gy gamma irradiation and measured after 1 week by crystal violet staining based […] assay relative to control; format: functional; conditions: HCT-116, light or radiation study, time 169 hrs
HCT-116 [2] = experiment: Induction of DNA damage in human HCT-116 cells assessed as reduction in p21 phosphorylation at T145 residue at 0.5 to 2 uM measured after 4 hrs by Western blot analysis; format: functional, cell-based; conditions: dose 0.5-2 µM
HCT-116 [3] = experiment: Induction of apoptosis in human HCT-116 cells assessed as late apoptotic cells at 1 uM measured after 2 days by AnnexinV-FITC/PI staining based analysis (reference value: 12.2%); format: functional; conditions: time 2 day
HCT-116 [4] = experiment: Induction of apoptosis in human HCT-116 cells assessed as viable cells at 4 uM measured after 2 days in presence of irinotecan by AnnexinV-FITC/PI staining based analysis (reference value: 72.8%); format: functional; conditions: HCT-116, 48 h, time 2 day, read-out: Activity
SW-620 [5] = experiment: Synergistic antiproliferative activity against human SW620 cells assessed as fold increase in irinotecan IC50 at 100 nM measured after 6 days by MTT assay; format: functional; conditions: time 6 day
HCT-116 [6] = experiment: Induction of apoptosis in human HCT-116 cells assessed as early apoptotic cells at 1 uM measured after 2 days in presence of irinotecan by AnnexinV-FITC/PI staining based analysis (reference value: 14.4%); format: functional; conditions: time 2 day
[7] = Metabolic stability in human liver microsomes assessed as half life at 1 uM in presence of NADPH-regenerating system by LC-MS/MS analysis; format: ADME, Microsome
HCT-116 [8] = experiment: Induction of apoptosis in human HCT-116 cells assessed as late apoptotic cells at 4 uM measured after 2 days in presence of irinotecan by AnnexinV-FITC/PI staining based analysis (reference value: 12.2%); format: functional; conditions: time 2 day
SW-620 [9] = experiment: Antitumor activity against human SW620 cells xenografted in BALB/c nude mouse model assessed as tumor growth inhibition at 40 mg/kg, po administered once daily for 3 days weekly for 21 days by caliper method; format: functional, organism-based; conditions: time 21.0 day
[10] = molecular target: T1, Serine-protein kinase ATM (Homo sapiens, UniProt Q13315); experiment: Inhibition of ATM (unknown origin) at 1 uM in presence of [gamma33P-ATP] by scintillation counting method relative to control
HCT-116 [11] = experiment: Induction of apoptosis in human HCT-116 cells assessed as necrotic cells at 2 uM measured after 2 days by AnnexinV-FITC/PI staining based analysis (reference value: 0.64%); format: functional; conditions: time 2 day
HCT-116 [12] = experiment: Induction of apoptosis in human HCT-116 cells assessed as necrotic cells at 1 uM measured after 2 days in presence of irinotecan by AnnexinV-FITC/PI staining based analysis (reference value: 0.64%); format: functional; conditions: time 2 day
SW-620 [13] = experiment: Synergistic antiproliferative activity against human SW620 cells assessed as fold increase in irinotecan IC50 at 200 nM measured after 6 days by MTT assay; format: functional; conditions: time 6 day
[14] = Tmax in Balb/C mouse at 10 mg/kg,iv measured upto 48 hrs by LC-MS/MS analysis; format: ADME, organism-based; conditions: in vivo
HCT-116 [15] = experiment: Induction of apoptosis in human HCT-116 cells assessed as late apoptotic cells at 2 uM measured after 2 days in presence of irinotecan by AnnexinV-FITC/PI staining based analysis (reference value: 12.2%); format: functional; conditions: time 2 day
SW-620 [16] = experiment: Antitumor activity against human SW620 cells xenografted in BALB/c nude mouse model assessed as tumor growth inhibition at 40 mg/kg, po administered once daily for 3 days weekly after irinotecan post treatment for 21 days by caliper method relative to control; format: functional; conditions: SW-620, 504 h, time 21 day, read-out: TGI
[17] = molecular target: T2, DNA-dependent protein kinase catalytic subunit (Homo sapiens, UniProt P78527); experiment: Inhibition of DNA-PK (unknown origin) in presence of [gamma33P-ATP] by scintillation counting method
SW-620 [18] = experiment: Antiproliferative activity against human SW620 cells assessed as reduction in cell viability incubated for 6 days by MTT assay; format: functional, cell-based; conditions: SW-620, 144 h
HCT-116 [19] = experiment: Induction of apoptosis in human HCT-116 cells assessed as late apoptotic cells at 4 uM measured after 2 days by AnnexinV-FITC/PI staining based analysis (reference value: 12.2%); format: functional; conditions: time 2 day
[20] = molecular target: T1, Serine-protein kinase ATM; experiment: Inhibition of ATM (unknown origin) assessed as remaining activity at 0.01 uM preincubated with compound for 30 mins followed by substrate addition and measured after 2 hrs by HTRF method relative to control; conditions: time 2.5 hrs
HCT-116 [21] = experiment: Induction of apoptosis in human HCT-116 cells assessed as viable cells at 2 uM measured after 2 days by AnnexinV-FITC/PI staining based analysis (reference value: 72.8%); format: functional; conditions: HCT-116, 48 h, time 2 day, read-out: Activity
MCF7 = experiment: Synergistic antiproliferative activity against human MCF7 cells assessed as combination index at […] measured after 6 days in presence etoposide by MTT assay; format: functional; conditions: dose lower 100 µM; time 6 day
[22] = Oral bioavailability in Balb/C mouse at 10 mg/kg measured upto 48 hrs by LC-MS/MS analysis; format: ADME, organism-based; conditions: in vivo
HCT-116 [23] = experiment: Induction of apoptosis in human HCT-116 cells assessed as necrotic cells at 1 uM measured after 2 days by AnnexinV-FITC/PI staining based analysis (reference value: 0.64%); format: functional; conditions: time 2 day
[24] = Toxicity in BALB/c nude mouse assessed as reduction in body weight at 20 to 40 mg/kg, po administered once daily for 3 days weekly after irinotecan post treatment for 21 days in presence of irinotecan relative to control; format: organism-based; design: scale not given: the % may be the effect or the level left; conditions: in vivo, 504 h, dose 20-40 mg/kg, time 21 day
HCT-116 [25] = experiment: Induction of apoptosis in human HCT-116 cells assessed as early apoptotic cells at 1 uM measured after 2 days by AnnexinV-FITC/PI staining based analysis (reference value: 14.4%); format: functional; conditions: time 2 day
HCT-116 [26] = experiment: Antiproliferative activity against human HCT-116 cells assessed as reduction in cell viability incubated for 6 days by MTT assay; format: functional, cell-based; conditions: HCT-116, 144 h
[27] = Half life in Balb/C mouse at 10 mg/kg,po measured upto 48 hrs by LC-MS/MS analysis; format: ADME, organism-based; conditions: in vivo
HCT-116 [28] = experiment: Induction of apoptosis in human HCT-116 cells assessed as viable cells at 2 uM measured after 2 days in presence of irinotecan by AnnexinV-FITC/PI staining based analysis (reference value: 72.8%); format: functional; conditions: HCT-116, 48 h, time 2 day, read-out: Activity
[29] = Tmax in Balb/C mouse at 10 mg/kg,po measured upto 48 hrs by LC-MS/MS analysis; format: ADME, organism-based; conditions: in vivo
[30] = molecular target: T2, DNA-dependent protein kinase catalytic subunit; experiment: Inhibition of DNA-PK (unknown origin) at 1 uM in presence of [gamma33P-ATP] by scintillation counting method relative to control
HCT-116 [31] = experiment: Antiproliferative activity against human HCT-116 cells assessed as cell survival at 1 uM incubated for 6 days by MTT assay relative to control; format: functional; conditions: HCT-116, 144 h, time 6 day, read-out: Survival
[32] = AUC (0 to t) in Balb/C mouse at 10 mg/kg,po measured upto 48 hrs by LC-MS/MS analysis; format: ADME, organism-based; design: dose 10 mg/kg, time < 48 hrs, route po; conditions: in vivo

T2 sequence (P78527 whole entry): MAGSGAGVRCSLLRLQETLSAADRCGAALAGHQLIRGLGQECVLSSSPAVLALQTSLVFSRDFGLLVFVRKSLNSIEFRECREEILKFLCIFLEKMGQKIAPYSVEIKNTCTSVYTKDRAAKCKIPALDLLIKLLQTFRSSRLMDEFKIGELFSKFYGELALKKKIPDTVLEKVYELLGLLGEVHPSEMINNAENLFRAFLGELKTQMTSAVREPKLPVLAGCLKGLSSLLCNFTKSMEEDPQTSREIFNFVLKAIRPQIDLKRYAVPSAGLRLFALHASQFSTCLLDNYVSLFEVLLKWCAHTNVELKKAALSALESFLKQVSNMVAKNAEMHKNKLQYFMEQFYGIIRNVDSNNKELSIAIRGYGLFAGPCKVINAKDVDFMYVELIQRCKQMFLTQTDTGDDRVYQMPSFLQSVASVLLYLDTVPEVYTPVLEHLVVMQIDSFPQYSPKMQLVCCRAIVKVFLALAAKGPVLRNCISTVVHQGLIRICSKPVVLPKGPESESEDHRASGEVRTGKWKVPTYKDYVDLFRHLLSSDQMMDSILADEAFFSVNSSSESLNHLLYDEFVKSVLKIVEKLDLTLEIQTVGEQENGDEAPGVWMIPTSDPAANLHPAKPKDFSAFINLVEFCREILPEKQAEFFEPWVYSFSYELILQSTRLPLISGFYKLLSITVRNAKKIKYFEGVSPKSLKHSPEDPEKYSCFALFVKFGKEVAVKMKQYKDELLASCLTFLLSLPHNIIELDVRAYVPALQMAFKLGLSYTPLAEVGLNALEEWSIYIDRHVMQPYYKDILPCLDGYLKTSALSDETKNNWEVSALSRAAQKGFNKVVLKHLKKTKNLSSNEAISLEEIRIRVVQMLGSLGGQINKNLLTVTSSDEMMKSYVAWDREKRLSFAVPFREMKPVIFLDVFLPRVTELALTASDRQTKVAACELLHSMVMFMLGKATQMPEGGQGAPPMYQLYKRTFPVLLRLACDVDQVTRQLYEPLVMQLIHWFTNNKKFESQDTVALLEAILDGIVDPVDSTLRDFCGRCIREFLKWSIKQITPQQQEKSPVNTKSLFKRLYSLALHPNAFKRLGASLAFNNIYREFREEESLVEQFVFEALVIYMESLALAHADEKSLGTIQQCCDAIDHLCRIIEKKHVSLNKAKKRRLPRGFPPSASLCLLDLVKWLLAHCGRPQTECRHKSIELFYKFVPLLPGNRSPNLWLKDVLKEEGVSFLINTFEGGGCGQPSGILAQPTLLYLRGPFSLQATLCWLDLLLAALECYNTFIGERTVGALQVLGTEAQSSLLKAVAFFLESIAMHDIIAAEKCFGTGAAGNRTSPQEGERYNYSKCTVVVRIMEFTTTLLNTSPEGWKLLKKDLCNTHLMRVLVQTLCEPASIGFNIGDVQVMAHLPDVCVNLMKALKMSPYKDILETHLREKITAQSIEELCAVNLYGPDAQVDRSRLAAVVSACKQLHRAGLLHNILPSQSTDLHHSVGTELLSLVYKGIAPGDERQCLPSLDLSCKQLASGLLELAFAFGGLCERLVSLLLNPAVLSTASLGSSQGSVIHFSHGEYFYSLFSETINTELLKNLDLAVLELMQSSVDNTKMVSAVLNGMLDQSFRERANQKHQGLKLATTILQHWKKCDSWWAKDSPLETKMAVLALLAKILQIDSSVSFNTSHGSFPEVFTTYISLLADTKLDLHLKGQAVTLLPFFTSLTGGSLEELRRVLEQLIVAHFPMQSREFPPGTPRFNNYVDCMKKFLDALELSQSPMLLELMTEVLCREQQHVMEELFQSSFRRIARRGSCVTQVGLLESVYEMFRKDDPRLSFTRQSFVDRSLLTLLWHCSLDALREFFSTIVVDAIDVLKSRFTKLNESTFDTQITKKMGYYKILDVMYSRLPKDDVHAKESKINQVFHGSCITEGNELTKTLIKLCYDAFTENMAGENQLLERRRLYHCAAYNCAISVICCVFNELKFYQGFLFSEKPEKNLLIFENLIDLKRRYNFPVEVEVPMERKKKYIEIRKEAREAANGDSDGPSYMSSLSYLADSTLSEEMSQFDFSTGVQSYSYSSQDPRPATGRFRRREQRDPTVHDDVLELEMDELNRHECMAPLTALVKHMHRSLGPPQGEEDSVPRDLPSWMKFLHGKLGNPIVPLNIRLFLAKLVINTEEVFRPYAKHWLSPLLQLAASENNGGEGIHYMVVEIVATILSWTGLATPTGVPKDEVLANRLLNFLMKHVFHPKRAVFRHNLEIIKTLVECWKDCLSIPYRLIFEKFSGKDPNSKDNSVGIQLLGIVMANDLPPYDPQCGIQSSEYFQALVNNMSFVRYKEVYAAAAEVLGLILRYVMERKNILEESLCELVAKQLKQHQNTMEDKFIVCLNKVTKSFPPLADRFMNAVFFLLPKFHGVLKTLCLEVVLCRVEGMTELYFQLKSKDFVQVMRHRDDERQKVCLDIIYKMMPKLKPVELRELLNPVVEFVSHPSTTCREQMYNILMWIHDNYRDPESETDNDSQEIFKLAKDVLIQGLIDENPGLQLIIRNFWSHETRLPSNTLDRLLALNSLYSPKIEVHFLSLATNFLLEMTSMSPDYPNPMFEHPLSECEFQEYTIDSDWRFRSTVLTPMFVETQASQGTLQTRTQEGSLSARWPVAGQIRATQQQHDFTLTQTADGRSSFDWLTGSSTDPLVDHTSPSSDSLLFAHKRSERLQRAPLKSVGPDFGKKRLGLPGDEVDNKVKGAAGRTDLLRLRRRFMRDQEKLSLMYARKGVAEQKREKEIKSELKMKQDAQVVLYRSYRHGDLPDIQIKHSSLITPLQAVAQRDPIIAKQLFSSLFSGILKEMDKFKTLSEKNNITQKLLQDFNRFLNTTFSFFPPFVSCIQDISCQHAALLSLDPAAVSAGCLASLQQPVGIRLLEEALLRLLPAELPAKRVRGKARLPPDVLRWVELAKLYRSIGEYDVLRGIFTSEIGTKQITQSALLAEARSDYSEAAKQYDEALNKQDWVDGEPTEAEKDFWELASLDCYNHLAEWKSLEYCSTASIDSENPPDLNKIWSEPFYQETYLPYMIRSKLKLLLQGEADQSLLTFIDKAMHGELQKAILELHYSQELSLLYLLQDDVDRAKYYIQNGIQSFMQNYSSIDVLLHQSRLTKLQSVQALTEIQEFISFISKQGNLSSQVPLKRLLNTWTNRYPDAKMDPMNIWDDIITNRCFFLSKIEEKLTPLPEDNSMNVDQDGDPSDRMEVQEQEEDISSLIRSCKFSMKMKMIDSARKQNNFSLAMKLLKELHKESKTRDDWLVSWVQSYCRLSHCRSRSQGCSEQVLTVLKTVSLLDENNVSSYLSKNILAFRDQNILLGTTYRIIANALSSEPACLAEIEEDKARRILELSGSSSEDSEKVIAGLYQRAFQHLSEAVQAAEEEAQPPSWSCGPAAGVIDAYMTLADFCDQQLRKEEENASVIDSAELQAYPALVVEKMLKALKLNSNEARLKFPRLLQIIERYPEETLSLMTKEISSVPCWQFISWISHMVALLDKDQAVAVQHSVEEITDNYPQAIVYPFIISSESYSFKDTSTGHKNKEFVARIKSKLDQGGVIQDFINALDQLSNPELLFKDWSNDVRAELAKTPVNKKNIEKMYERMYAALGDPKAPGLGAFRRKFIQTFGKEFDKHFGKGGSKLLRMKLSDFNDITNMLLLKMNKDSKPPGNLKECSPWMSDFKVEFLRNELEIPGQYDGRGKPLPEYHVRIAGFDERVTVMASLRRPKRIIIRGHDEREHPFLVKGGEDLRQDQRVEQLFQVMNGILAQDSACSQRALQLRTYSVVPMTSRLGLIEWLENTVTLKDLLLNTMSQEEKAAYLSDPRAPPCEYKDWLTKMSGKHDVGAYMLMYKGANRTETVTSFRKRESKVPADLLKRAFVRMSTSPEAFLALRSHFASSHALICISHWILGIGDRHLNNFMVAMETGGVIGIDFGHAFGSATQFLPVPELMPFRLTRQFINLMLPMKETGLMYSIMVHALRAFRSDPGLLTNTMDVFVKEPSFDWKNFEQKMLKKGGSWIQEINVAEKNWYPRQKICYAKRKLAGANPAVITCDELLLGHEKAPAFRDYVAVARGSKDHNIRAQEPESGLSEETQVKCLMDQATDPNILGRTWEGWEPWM

CC(C)NC(=O)N(C)c1cnc2ccc(-c3ccc(OCCCN4CCCCC4)nc3)cc2n1
inhibition at 0.01 µM (HCT-116 [1]): 94.1%
Activity (HCT-116 [2]): Active
Activity (HCT-116 [3]): 12.6%
viability at 4 µM (HCT-116 [4]): 7.37%
fold change (FC) (SW-620 [5]): 2.8
Activity (HCT-116 [6]): 49.9%
half-life at 1 µM [7]: 770 min
Activity (HCT-116 [8]): 35.2%
Activity (SW-620 [9]): inactive
inhibition [10]: < 50%
Activity (HCT-116 [11]): 0.92%
Activity (HCT-116 [12]): 2.39%
fold change (FC) (SW-620 [13]): 4.5
Tmax [14]: 4.8 min
Activity (HCT-116 [15]): 33.1%
inhibition in vivo at 40 mg/kg (SW-620 [16]): 85.3%
IC50 [17]: 420 nM
IC50 (SW-620 [18]): > 9 µM
Activity (HCT-116 [19]): 13%
Activity [20]: 2%
viability at 2 µM (HCT-116 [21]): 67.3%
CI (MCF7): <1
bioavailability [22]: 107%
Activity (HCT-116 [23]): 1.01%
Activity [24]: < 12%
Activity (HCT-116 [25]): 18.3%
IC50 (HCT-116 [26]): > 9 µM
t1/2 [27]: 3.37 h
viability at 2 µM (HCT-116 [28]): 14%
Tmax [29]: 19.8 min
inhibition [30]: < 50%
viability at 1 µM (HCT-116 [31]): > 83%
AUCt [32]: 13.95223 µg·h/mL
